According to patent US11572590B2, “Methods for evaluating tumor cell spheroids using 3D microfluidic cell culture device” (Dana-Farber Cancer Institute, Inc., priority 2017, dated 2023):
Where two headings read alike, the source gives them in different places.

Tests used:
Test in all cases: SelectScreen Kinase Profiling, single point inhibition and IC50 for off-target kinases
Assay type in all cases: biochemical
[1] = molecular target: off-target kinases (Homo sapiens, UniProt P07333); settings: CSF1R (FMS), ATP Km app, ZLYTE
[2] = molecular target: off-target kinases (Homo sapiens, UniProt P22612); settings: PRKACG (PRKAC gamma), LanthaScreen Binding
[3] = molecular target: T1, off-target kinases (Homo sapiens, UniProt Q9UF33); settings: EPHA6, LanthaScreen Binding
T1 sequence (Q9UF33 23-1036): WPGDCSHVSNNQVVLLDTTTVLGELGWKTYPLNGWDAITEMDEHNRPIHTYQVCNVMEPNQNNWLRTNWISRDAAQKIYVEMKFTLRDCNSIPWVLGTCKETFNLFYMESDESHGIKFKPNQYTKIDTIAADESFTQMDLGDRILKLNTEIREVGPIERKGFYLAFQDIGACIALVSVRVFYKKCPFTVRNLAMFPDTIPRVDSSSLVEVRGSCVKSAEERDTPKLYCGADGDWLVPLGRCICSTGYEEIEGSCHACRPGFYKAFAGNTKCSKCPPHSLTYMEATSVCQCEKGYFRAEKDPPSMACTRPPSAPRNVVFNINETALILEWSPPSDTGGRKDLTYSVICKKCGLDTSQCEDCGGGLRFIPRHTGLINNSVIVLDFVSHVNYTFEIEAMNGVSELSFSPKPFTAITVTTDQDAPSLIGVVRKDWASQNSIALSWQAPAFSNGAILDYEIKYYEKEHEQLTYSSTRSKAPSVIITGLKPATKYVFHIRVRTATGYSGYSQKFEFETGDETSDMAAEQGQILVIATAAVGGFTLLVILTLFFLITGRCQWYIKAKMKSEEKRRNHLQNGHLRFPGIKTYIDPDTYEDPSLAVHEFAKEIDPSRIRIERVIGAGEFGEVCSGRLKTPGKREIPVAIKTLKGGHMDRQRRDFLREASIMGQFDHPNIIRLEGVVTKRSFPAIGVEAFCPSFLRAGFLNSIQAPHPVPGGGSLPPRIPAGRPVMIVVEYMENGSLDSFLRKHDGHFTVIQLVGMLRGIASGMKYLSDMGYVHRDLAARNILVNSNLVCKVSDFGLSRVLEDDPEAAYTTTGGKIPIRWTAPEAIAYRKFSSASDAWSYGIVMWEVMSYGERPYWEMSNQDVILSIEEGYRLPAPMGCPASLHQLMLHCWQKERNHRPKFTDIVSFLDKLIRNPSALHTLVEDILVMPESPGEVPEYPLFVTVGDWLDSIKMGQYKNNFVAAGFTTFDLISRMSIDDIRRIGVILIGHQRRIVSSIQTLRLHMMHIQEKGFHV

[4] = molecular target: T2, off-target kinases (Homo sapiens, UniProt O43318); settings: MAP3K7/MAP3K7IP1 (TAK1-TAB1), LanthaScreen Binding
T2 sequence (O43318 1-606): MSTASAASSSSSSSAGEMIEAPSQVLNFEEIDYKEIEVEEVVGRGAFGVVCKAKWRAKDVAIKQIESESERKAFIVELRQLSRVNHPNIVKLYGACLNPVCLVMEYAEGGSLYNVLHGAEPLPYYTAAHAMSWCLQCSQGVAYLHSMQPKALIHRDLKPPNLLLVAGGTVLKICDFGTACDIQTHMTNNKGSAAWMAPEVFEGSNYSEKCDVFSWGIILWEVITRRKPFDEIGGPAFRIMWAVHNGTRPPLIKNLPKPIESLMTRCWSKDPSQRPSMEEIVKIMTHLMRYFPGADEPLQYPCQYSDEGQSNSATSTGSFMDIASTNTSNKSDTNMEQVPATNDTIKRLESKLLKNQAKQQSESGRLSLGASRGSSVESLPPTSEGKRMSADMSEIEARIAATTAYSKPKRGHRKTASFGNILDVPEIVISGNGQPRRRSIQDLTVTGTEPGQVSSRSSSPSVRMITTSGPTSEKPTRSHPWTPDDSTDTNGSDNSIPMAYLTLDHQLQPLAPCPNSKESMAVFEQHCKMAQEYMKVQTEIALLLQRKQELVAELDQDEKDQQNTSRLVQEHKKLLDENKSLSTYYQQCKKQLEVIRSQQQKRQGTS

Chain of off-target kinases (Homo sapiens, UniProt P22612) (P22612 whole entry): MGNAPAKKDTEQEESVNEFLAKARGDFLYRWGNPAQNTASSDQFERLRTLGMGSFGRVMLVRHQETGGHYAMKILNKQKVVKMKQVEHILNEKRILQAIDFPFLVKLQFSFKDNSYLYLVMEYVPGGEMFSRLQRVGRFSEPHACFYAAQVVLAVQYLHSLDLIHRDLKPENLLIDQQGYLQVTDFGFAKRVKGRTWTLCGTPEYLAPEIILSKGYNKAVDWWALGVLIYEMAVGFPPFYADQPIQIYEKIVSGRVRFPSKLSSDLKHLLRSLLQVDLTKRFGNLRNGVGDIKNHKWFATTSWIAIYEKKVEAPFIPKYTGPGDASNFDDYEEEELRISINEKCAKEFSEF
Chain of off-target kinases (Homo sapiens, UniProt P07333) (P07333 20-972): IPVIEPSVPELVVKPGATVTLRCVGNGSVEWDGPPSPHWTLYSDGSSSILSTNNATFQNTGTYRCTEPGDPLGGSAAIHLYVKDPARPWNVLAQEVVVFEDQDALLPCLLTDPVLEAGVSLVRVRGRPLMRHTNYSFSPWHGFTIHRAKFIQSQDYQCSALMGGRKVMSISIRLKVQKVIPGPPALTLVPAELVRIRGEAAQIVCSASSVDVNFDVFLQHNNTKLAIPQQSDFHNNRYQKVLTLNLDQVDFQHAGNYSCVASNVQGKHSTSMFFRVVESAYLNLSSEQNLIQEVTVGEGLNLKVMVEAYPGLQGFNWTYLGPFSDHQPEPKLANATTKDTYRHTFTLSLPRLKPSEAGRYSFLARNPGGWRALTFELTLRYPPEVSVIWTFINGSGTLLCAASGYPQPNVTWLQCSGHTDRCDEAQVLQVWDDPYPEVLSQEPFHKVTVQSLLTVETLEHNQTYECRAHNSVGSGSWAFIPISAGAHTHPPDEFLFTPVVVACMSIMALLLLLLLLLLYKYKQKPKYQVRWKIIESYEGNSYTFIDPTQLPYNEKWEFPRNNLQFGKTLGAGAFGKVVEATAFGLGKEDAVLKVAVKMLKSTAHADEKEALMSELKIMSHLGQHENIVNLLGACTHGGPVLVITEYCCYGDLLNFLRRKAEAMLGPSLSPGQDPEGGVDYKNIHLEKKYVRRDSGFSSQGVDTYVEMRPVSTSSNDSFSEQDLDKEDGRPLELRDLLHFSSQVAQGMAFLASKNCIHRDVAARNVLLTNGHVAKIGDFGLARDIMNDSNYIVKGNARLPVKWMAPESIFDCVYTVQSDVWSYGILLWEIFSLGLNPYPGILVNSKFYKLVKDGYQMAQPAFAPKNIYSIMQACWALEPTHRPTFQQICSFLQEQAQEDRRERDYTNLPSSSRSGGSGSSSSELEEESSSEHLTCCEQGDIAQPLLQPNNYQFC

Compound: N#Cc1cc(-c2ncnc(Nc3ccc(N4CCN(C5COC5)CC4)cc3)n2)ccc1OC1CCOCC1 [Compound 1, 5-(4-((4-(4-(oxetan-3-yl)piperazin-1-yl)phenyl)amino)-1,3,5-triazin-2-yl)-2-((tetrahydro-2H-pyran-4-yl)oxy)benzonitrile]
- inhibition ([1]; read-out: % Inhibition 1): 91%
- inhibition ([1]; read-out: % Inhibition 2): 96%
- inhibition ([1]; read-out: % Inhibition Avg): 93%
- inhibition ([2]; read-out: % Inhibition 1): 28%
- inhibition ([2]; read-out: % Inhibition 2): 19%
- inhibition ([2]; read-out: % Inhibition Avg): 24%
- inhibition ([3]; read-out: % Inhibition 1): 9%
- inhibition ([3]; read-out: % Inhibition 2): 20%
- inhibition ([3]; read-out: % Inhibition Avg): 14%
- inhibition ([4]; read-out: % Inhibition 2): 22%
- inhibition ([4]; read-out: % Inhibition Avg): 22%
